From US5248684A, “Certain 2-oxo-quinoline carboxylates or corresponding carboxamides useful as anti-emetics and suppressants of migraine” (Kyowa Hakko Kogyo Co., Ltd., priority 1990, dated 1993)

Tests used:
ddY strain male mice = assay: Acute toxicity (MLD, Minimum Lethal Dose); assay type: in vivo; details: 7 days observation
Protocol: The test compound was orally and intraperitoneally administered to ddY strain male mice weighing 20 to 25 g. MLD (Minimum Lethal Dose) was determined by observing the mortality for 7 days after the administration.

[1] = tested on: Cisplatin-induced vomiting; assay: Activity against CisPlatin-induced vomiting; assay type: in vivo, Suncus murinus; details: 30 min before Cisplatin 40 mg/kg i.p.; for Number of Vomiting (Episodes) (mean ± S.E.M.): 5 to 120 min, control 28.0 ± 6.7; for Latency (mean ± S.E.M.): time to first vomiting, control 35.1 ± 4.4
Protocol: b) Activity against CisPlatin-induced vomiting
Female and male Suncus murinus animals weighing 23 to 68 g were used, one group consisting of 5 to 10 animals. According to the method of Matsuki et al. (Japan J. Pharmacol., 48, 303 (1988)], the animals were isolated in metal mesh cage (one animal/one cage). One hour after, the test compound or physiological saline (control) was intraperitoneally administered (i.p.) in a volume of 0.1 ml/10 g of body weight. Further 30 minutes after administration of the test compound, Cisplatin (40 mg/kg) was intraperitoneally administered. After administration of Cisplatin, a time period (latency) for the first vomiting and the number of frequencies (episodes) of vomiting caused in the period of 5 to 120 minutes after administration were determined. The latency and the number of frequencies in the test compound administered group were compared with those in the control group. The test of significance was performed by Student's t-test.

SMILES: CCCCn1c(=O)cc(C(=O)N[C@H]2C[C@H]3CCC[C@@H](C2)N3C)c2ccccc21 [Compound 10Sa, Endo-N-(9-methyl-9-azabicyclo[3.3.1]non-3-yl)-1-(n-butyl)-2-oxo-1,2-dihydro-4-quinolinecarboxamide]
- MLD (Minimum Lethal Dose) (ddY strain male mice; i.p.): 100 mg/kg
- MLD (Minimum Lethal Dose) (ddY strain male mice; p.o.): 300 mg/kg

SMILES: CC(C)Cn1c(=O)cc(C(=O)O[C@H]2C[C@H]3CC[C@@H](C2)N3C)c2ccccc21 [Compound 14Sa, Endo-(8-methyl-8-azabicyclo[3.2.1]oct-3-yl) 1-isobutyl-2-oxo-1,2-dihydro-4-quinolinecarboxylate]
- MLD (Minimum Lethal Dose) (ddY strain male mice; i.p.): 50 mg/kg
- MLD (Minimum Lethal Dose) (ddY strain male mice; p.o.): 200 mg/kg

SMILES: CCCCn1c(=O)c(C(=O)N[C@H]2C[C@H]3CC[C@@H](C2)N3C)c(O)c2ccccc21 [Compound 11Sa, Endo-N-(8-methyl-8-azabicyclo[3.2.1]oct-3-yl)-1-(n-butyl)-4-hydroxy-2-oxo-1,2-dihydro-3-quinolinecarboxamide]
- MLD (Minimum Lethal Dose) (ddY strain male mice; i.p.): > 100 mg/kg
- MLD (Minimum Lethal Dose) (ddY strain male mice; p.o.): > 300 mg/kg

SMILES: CCCCn1c(=O)c(C(=O)N[C@H]2C[C@H]3CC[C@@H](C2)N3C)c(O)c2cccnc21 [Compound 32Sa, Endo-N-(8-methyl-azabicyclo[3.2.1]oct-3-yl)-1-(butyl)-4-hydroxy-2-oxo-1,2-dihydro-1,8-naphthyridine-3-carboxamide]
- MLD (Minimum Lethal Dose) (ddY strain male mice; i.p.): 100 mg/kg
- MLD (Minimum Lethal Dose) (ddY strain male mice; p.o.): > 300 mg/kg

SMILES: CCn1c(=O)cc(C(=O)O[C@H]2C[C@H]3CC[C@@H](C2)N3C)c2ccccc21 [Compound 13Sa, Endo-(8-methyl-8-azabicyclo[3.2.1]oct-3-yl) 1-ethyl-2-oxo-1,2-dihydro-4-quinolinecarboxylate]
- MLD (Minimum Lethal Dose) (ddY strain male mice; i.p.): 100 mg/kg
- MLD (Minimum Lethal Dose) (ddY strain male mice; p.o.): 200 mg/kg

SMILES: CCCCn1c(=O)c(CC)c(C(=O)O[C@H]2C[C@H]3CC[C@@H](C2)N3C)c2ccccc21 [Compound 20Sa, Endo-(8-methyl-8-azabicyclo[3.2.1)oct-3-yl) 1-(n-butyl)-3-ethyl-2-oxo-1,2-dihydro-4-quinolinecarboxylate]
- MLD (Minimum Lethal Dose) (ddY strain male mice; i.p.): 100 mg/kg
- MLD (Minimum Lethal Dose) (ddY strain male mice; p.o.): 200 mg/kg

SMILES: CC(C)CCn1c(=O)cc(C(=O)O[C@H]2C[C@H]3CC[C@@H](C2)N3C)c2ccccc21 [Compound 15Sa, Endo-(8-methyl-8-azabicyclo[3.2.1]oct-3-yl) 1-isopentyl-2-oxo-1,2-dihydro-4-quinolinecarboxylate]
- MLD (Minimum Lethal Dose) (ddY strain male mice; i.p.): 100 mg/kg
- MLD (Minimum Lethal Dose) (ddY strain male mice; p.o.): 300 mg/kg

SMILES: CN1[C@@H]2CC[C@H]1C[C@@H](OC(=O)c1c(O)c3cccnc3n(-c3ccccc3)c1=O)C2 [Compound 24Sa, Endo-(8-methyl-8-azabicyclo[3.2.1]oct-3-yl) 4-hydroxy-2-oxo-1-phenyl-1,2-dihydro-1,8-naphthylidine-3-carboxylate]
- MLD (Minimum Lethal Dose) (ddY strain male mice; i.p.): > 100 mg/kg
- MLD (Minimum Lethal Dose) (ddY strain male mice; p.o.): > 300 mg/kg

SMILES: CCCn1c(=O)cc(C(=O)N[C@H]2C[C@H]3CC[C@@H](C2)N3C)c2ccccc21 [Compound 7Sa, Endo-N-(8-methyl-8-azabicyclo[3.2.1]oct-3-yl)-1-(n-propyl)-2-oxo-1,2-dihydro-4-quinolinecarboxamide]
- MLD (Minimum Lethal Dose) (ddY strain male mice; i.p.): > 100 mg/kg
- MLD (Minimum Lethal Dose) (ddY strain male mice; p.o.): > 300 mg/kg

SMILES: CC(C)n1c(=O)cc(C(=O)O[C@H]2C[C@H]3CC[C@@H](C2)N3C)c2ccccc21 [Compound 3Sa, Endo-(8-methyl-8-azabicyclo[3.2.1]oct-3-yl)l-isopropyl-2-oxo-1,2-dihydro-4-quinolinecarboxylate]
- MLD (Minimum Lethal Dose) (ddY strain male mice; i.p.): 100 mg/kg
- MLD (Minimum Lethal Dose) (ddY strain male mice; p.o.): 200 mg/kg

SMILES: CCCCCCn1c(=O)cc(C(=O)O[C@H]2C[C@H]3CC[C@@H](C2)N3C)c2ccccc21 [Compound 17Sa, Endo-(8-methyl-8-azabicyclo[3.2.1]oct-3-yl) 1-(n-hexyl)-2-oxo-1,2-dihydro-4-quinolinecarboxylate]
- MLD (Minimum Lethal Dose) (ddY strain male mice; i.p.): 100 mg/kg
- MLD (Minimum Lethal Dose) (ddY strain male mice; p.o.): > 300 mg/kg

SMILES: CN1[C@@H]2CC[C@H]1C[C@@H](OC(=O)c1cc(=O)n(Cc3ccccc3)c3ccccc13)C2 [Compound 18Sa, Endo-(8-methyl-8-azabicyclo[3.2.1]oct-3-yl) 1-benzyl-2-oxo-1,2-dihydro-4-quinolinecarboxylate]
- MLD (Minimum Lethal Dose) (ddY strain male mice; i.p.): 100 mg/kg
- MLD (Minimum Lethal Dose) (ddY strain male mice; p.o.): > 300 mg/kg

SMILES: CCCn1c(=O)cc(C(=O)O[C@H]2C[C@H]3CC[C@@H](C2)N3C)c2ccccc21 [Compound 2Sa, Endo-(8-methyl-B-azabicyclo[3.2.1]oct-3-yl)2-oxo-l-(n-propyl)-1,2-dihydro-4-quinolinecarboxylate]
- MLD (Minimum Lethal Dose) (ddY strain male mice; i.p.): 100 mg/kg
- MLD (Minimum Lethal Dose) (ddY strain male mice; p.o.): 200 mg/kg

SMILES: CN1[C@@H]2CC[C@H]1C[C@@H](OC(=O)c1cc(=O)n(-c3ccccc3)c3ccccc13)C2 [Compound 19Sa, Endo-(8-methyl-8-azabicyclo[3.2.1]oct-3-yl) 2-oxo-1-phenyl-1,2-dihydro-4-quinolinecarboxylate]
- MLD (Minimum Lethal Dose) (ddY strain male mice; i.p.): 100 mg/kg
- MLD (Minimum Lethal Dose) (ddY strain male mice; p.o.): 200 mg/kg

SMILES: CCCCCn1c(=O)cc(C(=O)O[C@H]2C[C@H]3CC[C@@H](C2)N3C)c2ccccc21 [Compound 16Sa, Endo-(8-methyl-8-azabicyclo[3.2.1]oct-3-yl)2-oxo-1-n-pentyl-1,2-dihydro-4-quinolinecarboxylate]
- MLD (Minimum Lethal Dose) (ddY strain male mice; i.p.): 100 mg/kg
- MLD (Minimum Lethal Dose) (ddY strain male mice; p.o.): 300 mg/kg

SMILES: CCCCn1c(=O)cc(C(=O)N[C@@H]2C[C@H]3CC[C@@H](C2)N3C)c2ccccc21 [Compound 9Sa, Exo-N-(8-methyl-8-azabicyclo[3.2.1]oct-3-yl)-1-(n-butyl)-2-oxo-1,2-dihydro-4-quinolinecarboxamide]
- MLD (Minimum Lethal Dose) (ddY strain male mice; i.p.): 100 mg/kg
- MLD (Minimum Lethal Dose) (ddY strain male mice; p.o.): > 300 mg/kg

SMILES: CCCCn1c(=O)c(O)c(C(=O)N[C@H]2C[C@H]3CC[C@@H](C2)N3C)c2ccccc21 [Compound 29Sa, Endo-N-(8-methyl-8-azabicyclo[3.2.1]oct-3-yl)-1-n-butyl-3-hydroxy-2-oxo-1,2-dihydro-4-quinolinecarboxamide]
- MLD (Minimum Lethal Dose) (ddY strain male mice; i.p.): > 100 mg/kg
- MLD (Minimum Lethal Dose) (ddY strain male mice; p.o.): > 300 mg/kg

SMILES: CN1[C@@H]2CC[C@H]1C[C@@H](NC(=O)c1cc(=O)n(C)c3ccccc13)C2 [Compound 8Sa, Endo-N-(8-methyl-8-azabicyclo[3.2.1]oct-3-yl)-1-methyl-2-oxo-1,2-dihydro-4-quinolinecarboxamide]
- MLD (Minimum Lethal Dose) (ddY strain male mice; i.p.): > 100 mg/kg
- MLD (Minimum Lethal Dose) (ddY strain male mice; p.o.): > 300 mg/kg

SMILES: CN1[C@@H]2CC[C@H]1C[C@@H](NC(=O)c1c(O)c3ccccc3n(-c3ccccc3)c1=O)C2 [Compound 30Sa, Endo-N-(8-methyl-8-azabicyclo[3.2.1]oct-3-yl)-4-hydroxy-2-oxo-1-phenyl-1,2-dihydro-3-quinolinecarboxamide]
- MLD (Minimum Lethal Dose) (ddY strain male mice; i.p.): 100 mg/kg
- MLD (Minimum Lethal Dose) (ddY strain male mice; p.o.): > 300 mg/kg

SMILES: CCCCn1c(=O)cc(C(=O)O[C@H]2C[C@H]3CC[C@@H](C2)N3C)c2ccccc21 [Compound 1Sa, Endo-(8-methyl-8-azabicyclo[3.2.1]oct-3-yl)-1-(n-butyl)-2-oxo-1,2-dihydro-4-quinolinecarboxylate]
- Number of Vomiting (Episodes) (mean ± S.E.M.) ([1]; 0.1 mg/kg i.p.): 18.0 ± 1.6 Episodes
- Latency (mean ± S.E.M.) ([1]; 0.1 mg/kg i.p.): 44.3 ± 2.0 min
- Number of Vomiting (Episodes) (mean ± S.E.M.) ([1]; 0.5 mg/kg i.p., *p < 0.05): 6.8 ± 2.0 Episodes
- Latency (mean ± S.E.M.) ([1]; 0.5 mg/kg i.p., *p < 0.05): 71.5 ± 12.9 min
- MLD (Minimum Lethal Dose) (ddY strain male mice; i.p.): 100 mg/kg
- MLD (Minimum Lethal Dose) (ddY strain male mice; p.o.): 200 mg/kg

SMILES: CCCCn1c(=O)cc(C(=O)N[C@H]2C[C@H]3CC[C@@H](C2)N3C)c2ccccc21 [Compound 6Sa, Endo-N-(8-methyl-8-azabicyclo[3.2.1]oct-3-yl)-1-(n-butyl)-2-oxo-1,2-dihydro-4-quinolinecarboxamide]
- MLD (Minimum Lethal Dose) (ddY strain male mice; i.p.): > 100 mg/kg
- MLD (Minimum Lethal Dose) (ddY strain male mice; p.o.): > 300 mg/kg
